Measured values from article PMC10341698, “Identification of Anti-Influenza A Compounds Inhibiting the Viral Non-Structural Protein 1 (NS1) Using a Type I Interferon-Driven Screening Strategy” (International Journal of Molecular Sciences, 2023).

Legend:
[1] = tested on: NS1; details: cited from earlier work
[2] = tested on: PKR mRNA; test: qRT-PCR of PKR mRNA in infected A549 cells; type: cell-based, human; details: A/PR/8/34(H1N1)-infected A549 cells, 24 h p.i., normalized with GAPDH and HAU
[3] = tested on: IFN-β mRNA; test: qRT-PCR of IFN-β mRNA in infected A549 cells; type: cell-based, human; details: A/PR/8/34(H1N1)-infected A549 cells, 24 h p.i., normalized with GAPDH and HAU
[4] = tested on: IFN-β promoter luciferase reporter; type: cell-based, human
[5] = tested on: influenza virus A/PR/8/34(H1N1); details: A549 cells; for reduction of viral replication: 50 µM, 3 h before infection, MOI 0.1, 24 h p.i., HAU
[6] = tested on: influenza virus A/PR/8/34(H1N1); test: microbe, parasite or virus in culture; details: unidentified influenza virus, A549, 24 h
[7] = tested on: A(H1N1)pdm09 NS1; test: Confirmation in the IFN-β luciferase system (flash type); type: cell-based, A(H1N1)pdm09 influenza virus; details: HEK 293 cells, 50 μM
[8] = tested on: RNase L mRNA; test: qRT-PCR of RNase L mRNA in infected A549 cells; type: cell-based, human; details: A/PR/8/34(H1N1)-infected A549 cells, 24 h p.i., normalized with GAPDH and HAU
[9] = tested on: A(H1N1)pdm09 NS1; test: IFN-β promoter luciferase screening of the diverse library (glow type); type: cell-based, A(H1N1)pdm09 influenza virus; details: HEK 293 cells; for increase of IFN-β promoter stimulation: 50 μM, 42 h treatment, glow luciferase, single experiment
[10] = in vitro; details: human
Protocol: (§1) Cytotoxic concentration to cause death to 50% of viable cells (CC50) was calculated by neutral red uptake assay (NRU) assay [64]. In brief, 1 × 10^4 A549 cells were seeded in 96-well plates and exposed to different concentrations of cpds 157, 164 (25, 50, 100, 200, and 400 μM) or equivalent volumes of DMSO as a control for 48 h. At the end of the exposure time, cells were washed with phosphate-buffered saline (PBS) before being incubated for 3 h in a medium supplemented with neutral red (50 μg/mL). The medium was washed off rapidly with PBS, and cells were incubated for a further 15′ at R.T. in a mixture of 1% acetic acid and 50% ethanol to extract the dye. Absorbance was then measured at 540 nm using a micro-plate reader (Biorad). Neutral red powder was purchased from Sigma-Aldrich. The percentage of cell death for each compound concentration, compared to the corresponding DMSO amount in untreated controls (y-axis), was plotted against increasing cpd concentrations (x-axis). Data were transformed in log scale [x = log(x)], and a linear regression analysis was used to calculate the CC50 concentration.

[11] = tested on: 2′5′ OAS mRNA; test: qRT-PCR of OAS mRNA in infected A549 cells; type: cell-based, human; details: A/PR/8/34(H1N1)-infected A549 cells, 24 h p.i., normalized with GAPDH and HAU
[12] = tested on: A549 cells; details: human, 48 h
Protocol: as §1

SMILES	EC50 [1]	fold increase for PKR [2]	fold increase in IFN-β mRNA accumulation [3]	non-specific activity on the reporter, alone or with IFN inducer, without NS1 [4]	therapeutic index (CC50/IC50) [5]	reduction of viral replication [5]	IC50 [6]	restoration of the luciferase signal [7]	fold increase for RNase L [8]	increase of IFN-β promoter stimulation [9]	CC50 at 48 h [10]	fold increase for 2′5′ OAS [11]	CC50 [12]	IFN-β promoter assay with the reference NS1 inhibitor ([9]; 5 μM)
Nc1ccccc1C(=O)NCCCc1ccccc1 [A22]	~0.05 µM													
CCc1ccc(NC(=O)COC(=O)c2ccc3ccccc3n2)cc1 [Compound 157]		4.5 fold	2.7 fold	without showing non-specific activities	> 7.8	50%	51.6 µM	significant restoration of the luciferase signal	2.5 fold	at least 50%	> 400 µM	2.3 fold		
O=C(CSc1nnnn1-c1ccccc1)NCc1ccccc1 [Compound 164]		1.7 fold	3.2 fold	without showing non-specific activities	3.6	60%	46.4 µM	significant restoration of the luciferase signal	2.3 fold	at least 50%	> 150 µM	1.7 fold	169 µM	
O=C(NCCCc1ccccc1)c1ccccc1O [JJ3297, reference compound]	0.8 µM													specificity of the IFN-β promoter assay was also confirmed
O=C(N/N=C/c1ccc2c(c1)CCC2)c1ccccc1O [NSC125044]	8 µM													
